Experimental data published in ChEMBL document CHEMBL1177848, “Synthesis of novel 6,6a,7,8-tetrahydro-5H-naphtho[1,2-e]pyrimido[4,5-b][1,4]diazepines under microwave irradiation as potential anti-tumor agents” (2010).
Calls of active or inactive are those of the source. The rule behind the calls is not given here.

Key:
EKVX = test: Growth inhibition of human EKVX cells after 48 hrs by sulforhodamine B assay; format: functional
NCI-H226 = test: Growth inhibition of human NCI-H226 cells after 48 hrs by sulforhodamine B assay; format: functional; conditions: NCI-H226, 48 h
NCI-H522 [1] = test: Growth inhibition of human NCI-H522 cells after 48 hrs by sulforhodamine B assay; format: functional; conditions: NCI-H522, 48 h
COLO 205 = test: Growth inhibition of human COLO205 cells after 48 hrs by sulforhodamine B assay; format: functional; conditions: COLO 205, 48 h
HCT-116 = test: Growth inhibition of human HCT116 cells after 48 hrs by sulforhodamine B assay; format: functional; conditions: HCT-116, 48 h
HT-29 = test: Growth inhibition of human HT-29 cells after 48 hrs by sulforhodamine B assay; format: functional; conditions: HT-29, 48 h; for CC50: read-out: LC50 (the source's name)
KM12 [2] = test: Growth inhibition of human KM12 cells after 48 hrs by sulforhodamine B assay; format: functional; conditions: KM12, 48 h
SW-620 = test: Growth inhibition of human SW620 cells after 48 hrs by sulforhodamine B assay; format: functional; conditions: SW-620, 48 h
SF-295 [3] = test: Growth inhibition of human SF295 cells after 48 hrs by sulforhodamine B assay; format: functional; conditions: SF-295, 48 h
MDA-MB-435 [4] = test: Growth inhibition of human MDA-MB-435 cells after 48 hrs by sulforhodamine B assay; format: functional; conditions: MDA-MB-435, 48 h
IGROV-1 = test: Growth inhibition of human IGROV1 cells after 48 hrs by sulforhodamine B assay; format: functional; conditions: IGROV-1, 48 h
OVCAR-3 [5] = test: Growth inhibition of human OVCAR-3 cells after 48 hrs by sulforhodamine B assay; format: functional; conditions: OVCAR-3, 48 h
OVCAR-4 [6] = test: Growth inhibition of human OVCAR4 cells after 48 hrs by sulforhodamine B assay; format: functional; conditions: OVCAR-4, 48 h
RXF 393 [7] = test: Growth inhibition of human RXF393 cells after 48 hrs by sulforhodamine B assay; format: functional; conditions: RXF 393, 48 h
UO-31 [8] = test: Growth inhibition of human UO31 cells after 48 hrs by sulforhodamine B assay; format: functional; conditions: UO-31, 48 h
PC-3 = test: Growth inhibition of human PC3 cells after 48 hrs by sulforhodamine B assay; format: functional; conditions: PC-3, 48 h
BT-549 [9] = test: Growth inhibition of human BT549 cells after 48 hrs by sulforhodamine B assay; format: functional; conditions: BT-549, 48 h; for CC50: read-out: LC50 (the source's name)
T47D [10] = test: Growth inhibition of human T47D cells after 48 hrs by sulforhodamine B assay; format: functional; conditions: for CC50: read-out: LC50 (the source's name)
CCRF-CEM = test: Growth inhibition of human CCRF-CEM cells at 1 uM after 48 hrs by sulforhodamine B assay; format: functional, cell-based
HL-60 = test: Growth inhibition of human HL-60(TB) cells at 1 uM after 48 hrs by sulforhodamine B assay; format: functional, cell-based
K562 = test: Growth inhibition of human K562 cells at 1 uM after 48 hrs by sulforhodamine B assay; format: functional, cell-based
HOP-92 = test: Growth inhibition of human HOP92 cells at 1 uM after 48 hrs by sulforhodamine B assay; format: functional, cell-based
NCI-H460 = test: Growth inhibition of human NCI-H460 cells at 1 uM after 48 hrs by sulforhodamine B assay; format: functional, cell-based
NCI-H522 [11] = test: Growth inhibition of human NCI-H522 cells at 1 uM after 48 hrs by sulforhodamine B assay; format: functional, cell-based
NCI-H322M = test: Growth inhibition of human […] cells at 1 uM after 48 hrs by sulforhodamine B assay; format: functional, cell-based
HCT-15 = test: Growth inhibition of human HCT15 cells at 1 uM after 48 hrs by sulforhodamine B assay; format: functional, cell-based
KM12 [12] = test: Growth inhibition of human KM12 cells at 1 uM after 48 hrs by sulforhodamine B assay; format: functional, cell-based
SF-295 [13] = test: Growth inhibition of human SF295 cells at 1 uM after 48 hrs by sulforhodamine B assay; format: functional, cell-based
SF530 = test: Growth inhibition of human SF530 cells at 1 uM after 48 hrs by sulforhodamine B assay; format: functional, cell-based
LOX IMVI = test: Growth inhibition of human LOXIMVI cells at 1 uM after 48 hrs by sulforhodamine B assay; format: functional, cell-based
Malme-3M = test: Growth inhibition of human MALME-3M cells at 1 uM after 48 hrs by sulforhodamine B assay; format: functional, cell-based
MDA-MB-435 [14] = test: Growth inhibition of human MDA-MB-435 cells at 1 uM after 48 hrs by sulforhodamine B assay; format: functional, cell-based
M14 = test: Growth inhibition of human M14 cells at 1 uM after 48 hrs by sulforhodamine B assay; format: functional, cell-based
SK-MEL-28 = test: Growth inhibition of human SK-MEL-28 cells at 1 uM after 48 hrs by sulforhodamine B assay; format: functional, cell-based
OVCAR-3 [15] = test: Growth inhibition of human OVCAR-3 cells at 1 uM after 48 hrs by sulforhodamine B assay; format: functional, cell-based
OVCAR-4 [16] = test: Growth inhibition of human OVCAR4 cells at 1 uM after 48 hrs by sulforhodamine B assay; format: functional, cell-based
NCI/ADR-RES = test: Growth inhibition of human NCI/ADR-RES cells at 1 uM after 48 hrs by sulforhodamine B assay; format: functional, cell-based
RXF 393 [17] = test: Growth inhibition of human RXF393 cells at 1 uM after 48 hrs by sulforhodamine B assay; format: functional, cell-based
TK-10 = test: Growth inhibition of human TK10 cells at 1 uM after 48 hrs by sulforhodamine B assay; format: functional, cell-based
UO-31 [18] = test: Growth inhibition of human UO31 cells at 1 uM after 48 hrs by sulforhodamine B assay; format: functional, cell-based
DU-145 = test: Growth inhibition of human DU145 cells at 1 uM after 48 hrs by sulforhodamine B assay; format: functional, cell-based
MDA-MB-231 = test: Growth inhibition of human MDA-MB-231 cells at 1 uM after 48 hrs by sulforhodamine B assay; format: functional, cell-based
BT-549 [19] = test: Growth inhibition of human BT549 cells at 1 uM after 48 hrs by sulforhodamine B assay; format: functional, cell-based
T47D [20] = test: Growth inhibition of human T47D cells at 1 uM after 48 hrs by sulforhodamine B assay; format: functional, cell-based
MDA-MB-468 = test: Growth inhibition of human MDA-MB-468 cells at 1 uM after 48 hrs by sulforhodamine B assay; format: functional, cell-based
Hs-578T = test: Growth inhibition of human Hs 578T cells at 1 uM after 48 hrs by sulforhodamine B assay; format: functional, cell-based

## Nc1nc(N)c2c(n1)NC(c1ccc(Cl)cc1)C1CCc3ccccc3C1=N2 (stereo not drawn)
EKVX
  GI50: 3.62 µM
  LC50: 96.5 µM
NCI-H226
  GI50: 8.58 µM
  LC50: 80.6 µM
NCI-H522 [1]
  GI50: 5.21 µM
  LC50: 54.4 µM
COLO 205
  GI50: 2.78 µM
  LC50 (50% lethal concentration): 30.1 µM
HCT-116
  GI50: 3.72 µM
  LC50: 38.6 µM
HT-29
  GI50: 4.31 µM
  CC50: 52.6 µM
KM12 [2]
  GI50: 8.48 µM
  LC50 (concentration killing 50% of cells): 45.6 µM
SW-620
  GI50: 8.23 µM
  LC50: 54.9 µM
SF-295 [3]
  GI50: 3.37 µM
  LC50 (50% lethal concentration): 40.7 µM
MDA-MB-435 [4]
  GI50: 4.72 µM
  LC50 (concentration killing 50% of cells): 54.1 µM
IGROV-1
  GI50: 6.16 µM
  LC50 (concentration killing 50% of cells): 49.9 µM
OVCAR-3 [5]
  GI50: 6.46 µM
  LC50 (lethal concentration, 50% cell kill): 43.6 µM
OVCAR-4 [6]
  GI50: 6.45 µM
  LC50 (50% lethal concentration): 50.9 µM
RXF 393 [7]
  GI50: 4.68 µM
  LC50 (50% lethal concentration): 54.4 µM
UO-31 [8]
  GI50: 3.63 µM
  LC50: 46.2 µM
PC-3
  GI50: 2.86 µM
  LC50: 48.9 µM
BT-549 [9]
  GI50: 9.01 µM
  CC50: 52.6 µM
T47D [10]
  GI50: 4.09 µM
  CC50: 59.8 µM
CCRF-CEM
  growth inhibition (GI): inactive
HL-60
  growth inhibition (GI): inactive
K562
  growth inhibition (GI): inactive
HOP-92
  growth inhibition (GI): inactive
NCI-H460
  growth inhibition (GI): inactive
NCI-H522 [11]
  growth inhibition (GI): inactive
NCI-H322M
  growth inhibition (GI): inactive
HCT-15
  growth inhibition (GI): inactive
KM12 [12]
  growth inhibition (GI): inactive
SF-295 [13]
  growth inhibition (GI): inactive
SF530
  growth inhibition (GI): inactive
LOX IMVI
  growth inhibition (GI): inactive
Malme-3M
  growth inhibition (GI): inactive
MDA-MB-435 [14]
  growth inhibition (GI): inactive
M14
  growth inhibition (GI): inactive
SK-MEL-28
  growth inhibition (GI): inactive
OVCAR-3 [15]
  growth inhibition (GI): inactive
OVCAR-4 [16]
  growth inhibition (GI): inactive
NCI/ADR-RES
  growth inhibition (GI): inactive
RXF 393 [17]
  growth inhibition (GI): inactive
TK-10
  growth inhibition (GI): inactive
UO-31 [18]
  growth inhibition (GI): inactive
DU-145
  growth inhibition (GI): inactive
MDA-MB-231
  growth inhibition (GI): inactive
BT-549 [19]
  growth inhibition (GI): inactive
T47D [20]
  growth inhibition (GI): inactive
MDA-MB-468
  growth inhibition (GI): inactive
Hs-578T
  growth inhibition (GI): inactive

## Nc1nc(N)c2c(n1)NC(c1ccccc1)C1CCc3ccccc3C1=N2 (stereo not drawn)
EKVX
  GI50: 2.68 µM
  LC50: 78.3 µM
NCI-H226
  GI50: 5.96 µM
  LC50: > 100 µM
NCI-H522 [1]
  GI50: 4.53 µM
  LC50: 65.4 µM
COLO 205
  GI50: 3.07 µM
  LC50 (50% lethal concentration): 38.7 µM
HCT-116
  GI50: 2.97 µM
  LC50: 38 µM
HT-29
  GI50: 3.66 µM
  CC50: 38 µM
KM12 [2]
  GI50: 4.07 µM
  LC50 (concentration killing 50% of cells): 39.7 µM
SW-620
  GI50: 6.3 µM
  LC50: 53.3 µM
SF-295 [3]
  GI50: 1.69 µM
  LC50 (50% lethal concentration): 34.4 µM
MDA-MB-435 [4]
  GI50: 2.93 µM
  LC50 (concentration killing 50% of cells): 39.9 µM
IGROV-1
  GI50: 4.45 µM
  LC50 (concentration killing 50% of cells): 62.3 µM
OVCAR-3 [5]
  GI50: 3.48 µM
  LC50 (lethal concentration, 50% cell kill): 39.4 µM
OVCAR-4 [6]
  GI50: 3.06 µM
  LC50 (50% lethal concentration): 62.3 µM
RXF 393 [7]
  GI50: 4.89 µM
  LC50 (50% lethal concentration): 66.7 µM
UO-31 [8]
  GI50: 2.5 µM
  LC50: 45 µM
PC-3
  GI50: 2.82 µM
  LC50: > 100 µM
BT-549 [9]
  GI50: 5.42 µM
  CC50: 47.9 µM
T47D [10]
  GI50: 4.57 µM
  CC50: > 100 µM
CCRF-CEM
  growth inhibition (GI): inactive
HL-60
  growth inhibition (GI): inactive
K562
  growth inhibition (GI): inactive
HOP-92
  growth inhibition (GI): inactive
NCI-H460
  growth inhibition (GI): inactive
NCI-H522 [11]
  growth inhibition (GI): inactive
NCI-H322M
  growth inhibition (GI): inactive
HCT-15
  growth inhibition (GI): inactive
KM12 [12]
  growth inhibition (GI): inactive
SF-295 [13]
  growth inhibition (GI): inactive
SF530
  growth inhibition (GI): inactive
LOX IMVI
  growth inhibition (GI): inactive
Malme-3M
  growth inhibition (GI): inactive
MDA-MB-435 [14]
  growth inhibition (GI): inactive
M14
  growth inhibition (GI): inactive
SK-MEL-28
  growth inhibition (GI): inactive
OVCAR-3 [15]
  growth inhibition (GI): inactive
OVCAR-4 [16]
  growth inhibition (GI): inactive
NCI/ADR-RES
  growth inhibition (GI): inactive
RXF 393 [17]
  growth inhibition (GI): inactive
TK-10
  growth inhibition (GI): inactive
UO-31 [18]
  growth inhibition (GI): inactive
DU-145
  growth inhibition (GI): inactive
MDA-MB-231
  growth inhibition (GI): inactive
BT-549 [19]
  growth inhibition (GI): inactive
T47D [20]
  growth inhibition (GI): inactive
MDA-MB-468
  growth inhibition (GI): inactive
Hs-578T
  growth inhibition (GI): inactive
